Reference: patent US20150237838A1, “REGULATION OF INSECT POPULATIONS” (CALIFORNIA INSTITUTE OF TECHNOLOGY, priority 2014, published 2015)

Key:
[1] = tested on: Opie2-dsx-pac expressing flies; test: Sex selection of Opie2-dsx-pac flies on puromycin diet; format: in vivo, Drosophila melanogaster; conditions: diet with increasing concentrations of puromycin; at ~2 mg/ml; n=500
Description: (§1) The possibility of utilizing the endogenous sex determination machinery to promote sex-specific antibiotic resistance-based selection was next tested. Sex-specific introns dsx and tra were incorporated into the coding frames of the antibiotic resistance genes pac and neo, respectively, and two types of flies were generated, one type expressing Opie2-tra-neo and another type expressing Opie2-dsx-pac. The dsx intron can be excised by splicing only in males and the tra intron can be excised by splicing only in females. This precise sex-specific splicing of these two introns is dictated by the sex determination machinery of the fly. […] The Opie2-tra-neo expressing flies were fed diet containing increasing concentrations of G418 resulting in 100% female progeny at ˜5 mg/ml (n=2,000). The Opie2-dsx-pac expressing flies were fed diet containing increasing concentrations of puromycin resulting in 100% male progeny at ˜2 mg/ml (n=500).

[2] = tested on: Drosophila wild-type larvae; test: Antibiotic toxicity test, wild-type larvae fed antibiotic-supplemented diet; format: in vivo, Drosophila melanogaster; conditions: for first instar death: larvae fed antibiotic-supplemented diet at around 1 mg/ml, n=10,000; for concentration at which antibiotic was highly toxic: wild-type larvae fed increasing amounts in diet
Description: As proof of principle, an embodiment of this system was developed for the fruit fly Drosophila melanogaster. As an initial test of antibiotic toxicity, Drosophila wild-type larvae were separately fed increasing amounts of either G418 or puromycin. Both antibiotics were highly toxic around 1 mg/ml such that when larvae were fed antibiotic-supplemented diet at this concentration, 100% first instar death was observed (n=10,000). Thus, these two antibiotics can be used as selection molecules in this system.

[3] = tested on: transgenic flies expressing the pac gene; test: Antibiotic diet fed to transgenic flies expressing pac gene; format: in vivo, Drosophila; conditions: diet with increasing concentrations of puromycin; pac under Opie2 promoter
Description: To determine if the toxicity of puromycin and neomycin could be negated, antibiotic resistance genes pac and neo were used. Two types of transgenic flies were generated each expressing one type of antibiotic resistance gene under the control of the promoter Opie2. One type of transgenic fly expressed the pac gene and the other expressed the neo gene. Transgenic flies were fed a diet supplemented with increasing concentrations of either puromycin or G418, respectively. […] Additionally, these transgenic flies were quite healthy with high fitness. Thus, the pac and neo genes could be used to counter the toxicity of […], respectively.

[4] = tested on: flies expressing Opie2-tra-pac; test: Sex selection of Opie2-tra-pac flies on puromycin diet; format: in vivo, Drosophila melanogaster; conditions: larvae fed diet with increasing concentrations of puromycin; n=500
Description: Thus, the sex specific introns can be interchangeably used with either antibiotic resistance genes to select for either males or females.

[5] = tested on: genetically engineered insects containing both antibiotic resistance markers; test: Sex selection of flies carrying combined vector (Opie2-tra-neo and Opie2-dsx-pac); format: in vivo, Drosophila
Description: The expanded insect population containing both males and females was transferred to a diet supplemented with puromycin.

[6] = tested on: Opie2-tra-neo expressing flies; test: Sex selection of Opie2-tra-neo flies on G418 diet; format: in vivo, Drosophila melanogaster; conditions: diet with increasing concentrations of G418; at ~5 mg/ml; n=2,000
Description: as §1

insects = conditions: tetracycline in diet; Zeh et al., 2012; cited from earlier work

Structure (SMILES) | male progeny [1] [%] | first instar death [2] [%] | concentration at which antibiotic was highly toxic [2] | toxicity of antibiotic in resistance-gene flies [3] | female progeny [4] [%] | males selected ([5]; diet supplemented with increasing concentrations of puromycin (FIG. 2)) [%] | sex-selective killing of progeny ([5]; puromycin-supplemented diet, first instar larval stage) | female progeny [6] [%] | females selected ([5]; diet supplemented with increasing concentrations of G418 (FIG. 3)) [%] | side effect on insects (fitness) (insects)
COc1ccc(C[C@H](N)C(=O)N[C@H]2[C@@H](O)[C@H](n3cnc4c(N(C)C)ncnc43)O[C@@H]2CO)cc1 [puromycin] | 100 | 100 | around 1 mg/ml | negate the toxicity | 100 | 100 | female progeny were selectively killed | – | – | –
CN[C@@H]1[C@@H](O)[C@@H](O[C@@H]2[C@@H](O)[C@H](O[C@H]3O[C@H]([C@@H](C)O)[C@@H](O)[C@H](O)[C@H]3N)[C@@H](N)C[C@H]2N)OC[C@]1(C)O [G418] | – | 100 | around 1 mg/ml | – | – | – | – | 100 | 100 | –
CN(C)[C@@H]1C(O)=C(C(N)=O)C(=O)[C@@]2(O)C(O)=C3C(=O)c4c(O)cccc4[C@@](C)(O)[C@H]3C[C@@H]12 [tetracycline] | – | – | – | – | – | – | – | – | – | large fitness cost
